We go through two compounds from patent US20240216317A1, “COMPOSITION FOR PREVENTING, AMELIORATING OR TREATING INFLAMMATORY BOWEL DISEASE COMPRISING COMPOUND ISOLATED FROM ISODON EXCISUS AS EFFECTIVE COMPONENT” (HEALINNOLS INC., priority 2022, published 2024).

The target of one experiment is T1, RIPK2 (Homo sapiens, UniProt O43353).
T1 construct: Caco-2 cells were dissolved by adding buffer solution for degradation; endogenous in cells; host or cells: Caco-2
In words: Inhibitory activity on RIPK2 phosphorylation using Western blot in Caco-2 cells. The format is cell-based. To be noted: FIG. 1. As to the method: Caco-2 cells were adjusted to have density of 2×10^5 cells/ml. Suspension of the cells (0.5 ml) was aliquoted in apical side membrane phase of a transwell insert 12-well plate. To the basolateral side phase, 1.5 ml of culture medium were added. While replacing the medium with fresh one, once per 2 or 3 days, culture was continued for 21 days approximately, i.e., till to have cell division and suitable TEER (transepithelial electrical resistance) value of monolayer.
For measuring the electric resistance (TEER value, Ω·cm^2) between the apical side and basolateral side, EVOM resistance meter (EVOM2, WPI) was employed.
Once the TEER value of Caco-2 cells is 200 Ω·cm^2 or higher, MDP inside the insert was treated for 24 hours with the compound represented by Chemical formula 1 of the present invention. After washing Caco-2 cells inside the insert with 1×PBS, they were treated with trypsin. After centrifuge and washing with cold 1×PBS, Caco-2 cells were dissolved by adding buffer solution for degradation (50 mM Tris-HCl (pH 8.0), 5 mM EDTA, 15 mM NaCl, 1% NP-40, 1 mM PMSF) followed by centrifuge for 20 minutes at 12,000 rpm, 4° C. Only the supernatant was then collected and protein quantification was carried out by using BCA protein assay kit. […]
For orientation: Immunoblotting shows a protein as a band on a membrane.

The test system of a further experiment is occludin. Description: Immunofluorescence microscopy of tight junction-related protein occludin in intestinal epithelial wall model (DSS-treated Caco-2). It is filed as cell-based, human. Conditions: 3% DSS, 24 hours; Chemical formula 1 0.3, 1 or 3 μM; 5-ASA 500 μM; FIG. 3. As for the experimental part: Caco-2 cell line (human intestinal epithelial cell line) and RAW 264.7 cell line, which is macrophage cells derived from mouse, were cultured at 37° C., 5% CO2 conditions by using DMEM (Dulbecco's Modified Eagle Medium, #11995065, Gibco) containing 10% FBS (fetal bovine serum, #16000044, Gibco) and 1% streptomycin/penicillin (#15140122, Gibco). For culturing the cells, the medium exchange was carried out every 2 to 3 days, and, once the cells are grown to the level of 80% in cell culture dish (#353003, Falcon), they were maintained by subculture.
The Caco-2 cells were adjusted to have density of 2×10^5 cells/ml. Suspension of the cells (0.5 ml) was aliquoted in apical side membrane phase of a transwell insert 12-well plate. To the basolateral side phase, 1.5 ml of culture medium were added. While replacing the medium with fresh one, once per 2 or 3 days, culture was continued for 21 days approximately, i.e., till to have cell division and suitable TEER (transepithelial electrical resistance) value of monolayer. […]
Thereafter, the cells were washed 3 times with 1×PBS for 5 minutes and treated for 5 minutes with Hoechst 33342 for staining the nucleus. […] After the mounting with ProLong™ Gold Antifade reagent, it was examined by confocal fluorescence microscopy.

T1 sequence (O43353 whole entry): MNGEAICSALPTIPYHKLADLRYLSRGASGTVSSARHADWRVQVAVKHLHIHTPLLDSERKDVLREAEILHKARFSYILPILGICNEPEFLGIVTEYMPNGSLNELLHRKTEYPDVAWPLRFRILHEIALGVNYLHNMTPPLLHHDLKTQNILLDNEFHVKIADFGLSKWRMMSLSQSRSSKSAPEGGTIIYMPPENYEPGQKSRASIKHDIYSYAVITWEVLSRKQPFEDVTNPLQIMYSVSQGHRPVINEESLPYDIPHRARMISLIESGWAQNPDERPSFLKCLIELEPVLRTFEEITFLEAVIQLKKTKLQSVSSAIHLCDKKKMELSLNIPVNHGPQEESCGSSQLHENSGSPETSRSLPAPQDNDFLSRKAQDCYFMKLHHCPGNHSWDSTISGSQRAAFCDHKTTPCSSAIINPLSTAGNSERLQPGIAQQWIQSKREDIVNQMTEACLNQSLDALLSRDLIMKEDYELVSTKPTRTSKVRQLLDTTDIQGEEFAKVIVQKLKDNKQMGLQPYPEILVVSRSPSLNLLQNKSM

For `COC(=O)C[C@H](OC(=O)/C=C/c1ccc(O)c(O)c1)c1ccc(O)c(O)c1` [Compound 1, 3-[3,4-dihydroxyphenyl]acrylic acid 1-[3,4-dihydroxyphenyl]-2-methoxycarbonylethyl ester], the “inhibitory activity on RIPK2 phosphorylation relative to gefitinib (positive control)” value at RIPK2 is listed as “at least 2 times”. On RIPK2 (MDP, 24 hours treatment), the “inhibition of activation of RIPK2 (phosphorylation)” value is recorded as “can inhibit the activation of RIPK2”. In addition, the “expression amount of occludin compared to DSS model group” value in the experiment with occludin is on record as “statistically significantly higher”.
Consider `Nc1ccc(O)c(C(=O)O)c1` [Compound 5-ASA, 5-aminosalicylic acid, reference compound], for which the “expression amount of occludin compared to DSS model group” value in the experiment on occludin was “statistically significantly higher”.
